What was measured:
[1] = test system: myostatin mRNA expression; test: Myostatin mRNA expression in C2C12 murine myoblasts (real-time PCR); format: cell-based; conditions: 10 μg/ml, FIG. 14
Description: C2C12 myoblasts were seeded in 10 cm diameter tissue culture plates (Nunc, Roskilde, Denmark) at a cell density of 3000 cells per cm^2 in 10 ml of Dulbecco's modified Eagle's medium (DMEM, Invitrogen, California) supplemented with foetal bovine serum (FBS, 10% v/v, Invitrogen), penicillin (1×10^5 IU/I, Sigma, St Louis, Mo., USA) and streptomycin (100 mg/l, Sigma) buffered with NaHCO3 containing phenol red (7.22 nmol/l) as a pH indicator, and incubated overnight at 37° C. with 5% CO2. For a set of eight plates (chronic treatment, designated “A”) the medium was replaced with the test medium: DMEM with 2.5% FBS supplemented with 0 or 10 μg/ml oMSV47 (n=4). The plates “A” were then incubated at 37° C. with 5% CO2 for 48 hours. […] RNA was re-suspended in diethyl pyrocarbonate-treated water and the total RNA concentration determined by measuring absorbance at 260 nm (Nanodrop Spectrophotometer, Delaware, USA). […] The following experimental run protocol was used: denaturation (95° C. for 5 min), amplification (95° C. for 5 sec, 62° C. for 10 sec, 72° C. for 20 sec, with a single fluorescence measurement, 50 cycles), melt curve (60-95° C. with a heating rate of 0.1° C. per sec with continuous fluorescence measurement) on a LightCycler 2.0 PCR machine (Roche Diagnostics). Arbitrary concentrations were calculated by the Lightcycler software using a standard curve (Roche Diagnostics).

p21 = p21 protein in proliferating C2C12 myoblasts (Western blot); format: cell-based, murine; conditions: 0.1, 1, 10 μg/ml, 48 h, FIG. 6
Description: Thus, a decrease in p21 protein expression may indicate an increased cell proliferation rate. PCNA is a positive marker of cell proliferation. It is a subunit of DNA polymerase-delta during DNA replication in the cell cycle. Higher level of PCNA protein expression is associated with higher number of cells entering the DNA replication phase of the cell cycle.
C2C12 myoblasts were seeded in 10 cm diameter tissue culture plates (Nunc, Roskilde, Denmark) at a cell density of 3000 cells per cm^2 in 10 ml of Dulbecco's modified Eagle's medium (DMEM, Invitrogen, California) supplemented with foetal bovine serum (FBS, 10% v/v, Invitrogen), penicillin (1×105 IU/l, Sigma, St Louis, Mo., USA) and streptomycin (100 mg/l, Sigma) buffered with NaHCO3 containing phenol red (7.22 nmol/l) as a pH indicator, and incubated overnight at 37° C. with 5% CO2. The medium was replaced with the test medium: DMEM with 10% FBS supplemented with, 0.1, 1 or 10 μg/ml oMSV65 (n=3). The plates were then incubated at 37° C. with 5% CO2 for 48 hours. Cells were removed from the plate by trypsin treatment, washed with phosphate buffered saline (PBS, Oxoid, UK) and resuspended in 100 μl of lysis buffer (10 mM Hepes pH 7.9, 1.5 mM MgCl2, 10 mM KCl, 0.5% NP40, one Complete protease inhibitor tablet [Roche Diagnostics, USA] per 50 ml buffer). […] Band intensities were measured with a GS800 densitometer (BioRad, USA).

primary ovine myoblasts = test: Proliferation assay of primary ovine myoblasts (methylene blue); format: cell-based; conditions: roMSV65 0 to 10 μg/ml, 72 h, FIG. 3B
Description: Myoblasts were seeded in 96-well tissue culture plates (Nunc, Roskilde, Denmark) at a cell density of 1000 cells per well in 200 μl of Dulbecco's modified Eagle's medium (DMEM, Invitrogen, California) supplemented with foetal bovine serum (FBS, 10% v/v, Invitrogen), penicillin (1×10^5 IU/l, Sigma, St Louis, Mo., USA) and streptomycin (100 mg/l, Sigma) buffered with NaHCO3 containing phenol red (7.22 nmol/l) as a pH indicator, and incubated overnight at 37° C. with 5% CO2. Medium was replaced with DMEM 10% FBS test medium containing 0, 0.001, 0.003, 0.01, 0.03, 0.1, 0.3, 1, 3 or 10 μg/ml oMSV65 in a semi-random arrangement of eight replicates (n=8) for each test medium. Plates were incubated at 37° C. with 5% CO2 for 72 hours, and then the medium was removed. The wells were washed with 200 μl of phosphate buffered saline (PBS, Oxoid, UK) and fixed with 100 μl of 10% formaldehyde, 0.9% NaCl solution for at least one hour. The fixative was then removed and 100 μl of 1% methylene blue stain in 0.01 M borate buffer (pH 8.5) was added to each well and incubated for 30 min at room temperature. Excess stain was removed by four sequential washes in borate buffer. Methylene blue was eluted from the cells by the addition of 100 μl 1:1 (v/v) ethanol/0.1 HCl. The plates were gently shaken and the absorbance was measured at 655 nm using a microplate photometer (FIGS. 3a and 3b).

Row | Molecule | expression of myostatin (real-time PCR) ([1]; acutely, 6 h from 48 to 54 h) | expression of myostatin (real-time PCR) ([1]; chronically, from seeding to 48 h) | p21 protein levels in proliferating C2C12 myoblasts (p21) | myoblast cell growth (proliferation) (primary ovine myoblasts)
1 | roMSV47: 47 amino acid C-terminal mature ovine MSV fragment (SEQ ID NO: 50), recombinant from E. coli (IIFLEVYIQFCSILGEAVFKRQSKSIHFCQNFKIIACLCNTAAFRMK; Ovis aries) | suppresses the expression of myostatin | suppresses the expression of myostatin | – | –
2 | roMSV65: 65 amino acid C-terminal peptide of ovine MSV (SEQ ID NO: 49) expressed as recombinant protein in E. coli (protein, Ovis aries) VHFYTPPYGQWIFHKERKIIFLEVYIQFCSILGEAVFKRQSKSIHFCQNFKIIACLCNTAAFRMK | – | – | dose-dependently decreases p21 protein levels | stimulate myoblast cell growth in a dose dependent manner

Reference: US8455448B2, “Myostatin isoform” (Myostin Therapeutics Pty Ltd, priority 2004, dated 2013)
